Test results reported in US8309579B2, “N-hydroxyamide derivatives and use thereof” (Merck Serono SA, priority 2005, dated 2012).

Tests used:
[1] = test system: IL-2-induced peritoneal recruitment of lymphocytes; test: IL-2-induced peritoneal recruitment of lymphocytes; format: in vivo, C3H/HEN mice; settings: mice, 3 mg/kg p.o., 15 min prior to IL-2; cells collected 24 h after IL-2
Protocol: Administration of IL-2 intraperitoneally causes migration of lymphocytes into the intraperitoneal cavity. This is a model for the cellular migration that occurs during inflammation.
C3H/HEN mice (Elevage Janvier, France) were intraperitoneally injected with IL-2 (20 μg/kg, in saline).
Compounds of the invention were suspended in 0.5% carboxymethylcellulose (CMC)/0.25% tween-20 and were administered by s.c. or p.o. route (10 ml/kg) 15 min prior to administration of IL-2.
Twenty-four hours after administration of IL-2, peritoneal white blood cells were collected by 3 successive lavages of the peritoneal cavity with 5 ml phosphate buffered saline (PBS)-1 mM EDTA (+4° C.). The suspension was centrifuged (1700 g×10 min at +4° C.). The resulting pellet was suspended in 1 ml PBS-1 mM EDTA.
Lymphocytes were identified and counted using a Beckman/Coulter counter.
The animals were divided into 6 groups (6 mice each group):
Inhibition of lymphocyte recruitment was calculated as follows:
Where Ly 1=Number of lymphocytes in group 1 (E3/μl), Ly 2=Number of lymphocytes in group 2 (E3/μl), Ly X=Number of lymphocytes in group X (3-5) (E3/μl).

metalloelastase (MMP-12) = metalloelastase (MMP-12) (Homo sapiens, UniProt P39900); test: MMP-12 enzyme inhibition assay (coumarin-labelled peptide substrate); format: biochemical
Sequence of metalloelastase (MMP-12) (P39900 106-470): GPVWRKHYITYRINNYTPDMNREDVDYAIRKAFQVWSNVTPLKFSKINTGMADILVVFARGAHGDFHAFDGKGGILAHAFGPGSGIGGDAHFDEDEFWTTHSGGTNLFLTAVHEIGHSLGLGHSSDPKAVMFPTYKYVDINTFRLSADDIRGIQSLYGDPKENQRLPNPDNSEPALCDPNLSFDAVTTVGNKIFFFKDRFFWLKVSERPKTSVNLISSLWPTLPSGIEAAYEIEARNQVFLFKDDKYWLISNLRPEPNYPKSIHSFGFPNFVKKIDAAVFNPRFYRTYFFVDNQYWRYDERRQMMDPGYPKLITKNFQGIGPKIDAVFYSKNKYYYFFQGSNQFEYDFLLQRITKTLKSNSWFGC
Protocol: (§1) Stock solutions were made up as follows: Assay Butter: 100 mM Tris-HCl pH 7.6 containing 100 mM NaCl, 10 mM CaCl2, and 0.05% Brij 35.
(§2) Substrate: 0.4 mM McaPLGLDpaAR (from Bachem) (0.437 mg/ml) stock solution in 100% DMSO (stored at −20° C.). Dilute to 8 μM in assay butter.
(§3) Test Compounds were prepared initially as 10 mM compound solution in 100% DMSO, diluted to 1 mM in 100% DMSO, then serially diluted 3-fold in 100% DMSO across columns 1-10 of a 96-well microtitre plate Assay concentration range, 100 μM (column 1) to 5.1 nM (column 10).
(§4) The assay was performed in a total volume of 100 μL per well in 96-well microtitre plates. Activated enzyme (20 μL) was added to the wells followed by 20 μL of assay butter. Appropriate concentrations of test compounds dissolved in 10 μL of DMSO were then added followed by 50 μL of McaPLGLDpaAR (8 μM, prepared by dilution of DMSO stock in assay butter). For each assay ten concentrations of test compound were examined in duplicate. Control wells lack either enzyme or test compound. The reactions were incubated at 37° C. for 2 hours. The fluorescence at 405 nm was measured immediately with an SLT Fluostar fluorometer (SL T Labinstruments GmbH, Grödig, Austria) using 320 nm excitation, without stopping the reaction.
(§5) The effect of the test compound was determined from the dose response curve generated by the 10 duplicate concentrations of inhibitor. […]

collagenase (MMP-1) = biological target: T1, collagenase (MMP-1) (Homo sapiens, UniProt P03956); test: MMP-1 enzyme inhibition assay (coumarin-labelled peptide substrate); format: biochemical
T1 sequence (P03956 100-469): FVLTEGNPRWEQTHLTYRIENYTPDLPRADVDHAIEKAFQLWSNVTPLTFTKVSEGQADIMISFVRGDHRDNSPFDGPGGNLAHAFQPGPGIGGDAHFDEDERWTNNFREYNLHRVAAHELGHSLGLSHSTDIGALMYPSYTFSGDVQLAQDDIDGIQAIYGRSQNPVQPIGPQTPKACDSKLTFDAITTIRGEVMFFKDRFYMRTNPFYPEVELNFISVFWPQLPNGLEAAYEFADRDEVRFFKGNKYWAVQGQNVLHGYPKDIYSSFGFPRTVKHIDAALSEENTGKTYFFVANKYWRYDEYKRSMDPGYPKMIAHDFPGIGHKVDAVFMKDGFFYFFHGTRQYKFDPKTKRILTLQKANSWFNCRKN
Protocol: as §1, §2, §3, §4, §5

gelatinase A (MMP-2) = biological target: T2, gelatinase A (MMP-2) (Homo sapiens, UniProt P08253); test: MMP-2 enzyme inhibition assay (coumarin-labelled peptide substrate); format: biochemical
T2 sequence (P08253 110-660): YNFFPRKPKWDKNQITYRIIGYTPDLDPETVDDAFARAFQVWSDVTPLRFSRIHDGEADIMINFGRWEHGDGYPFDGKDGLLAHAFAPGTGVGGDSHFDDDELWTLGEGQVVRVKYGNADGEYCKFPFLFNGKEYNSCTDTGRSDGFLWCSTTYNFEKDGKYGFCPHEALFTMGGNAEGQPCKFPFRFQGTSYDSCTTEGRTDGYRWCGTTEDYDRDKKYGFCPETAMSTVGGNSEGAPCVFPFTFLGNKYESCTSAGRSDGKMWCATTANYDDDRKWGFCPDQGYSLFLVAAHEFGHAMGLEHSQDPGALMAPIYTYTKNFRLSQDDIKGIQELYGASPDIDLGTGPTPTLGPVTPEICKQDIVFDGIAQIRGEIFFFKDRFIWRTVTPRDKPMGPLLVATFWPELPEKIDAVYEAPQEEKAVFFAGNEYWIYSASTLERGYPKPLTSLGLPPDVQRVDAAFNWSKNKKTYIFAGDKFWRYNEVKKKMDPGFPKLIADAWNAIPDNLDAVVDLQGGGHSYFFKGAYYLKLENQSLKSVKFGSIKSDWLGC
Protocol: as §1, §2, §3, §4, §5

IC50 (metalloelastase (MMP-12)) | IC50 (collagenase (MMP-1)) | IC50 (gelatinase A (MMP-2)) | Compound | % inhibition of IL-2-induced peritoneal recruitment of lymphocytes [1]
68 nM | > 5 µM | 13 nM | COc1ccc(N2CCN(C(=O)[C@@H](CC(C)C)CN(O)C=O)CC2)cc1 [Example 1, hydroxy((2S)-2-{[4-(4-methoxyphenyl)piperazin-1-yl]carbonyl}-4-methylpentyl)formamide] | 35 ± 10%
8 nM | > 5 µM | 9 nM | CC(C)C[C@@H](CN(O)C=O)C(=O)N1CCN(c2ccc(-c3ccccc3)cc2)CC1 [Example 2, {(2S)-2-[(4-biphenyl-4-ylpiperazin-1-yl)carbonyl]-4-methylpentyl}hydroxyformamide] | 
